Data taken from patent US20200407393A1, “Medical Use” (priority 2018, published 2020).
Like-named read-outs stand apart in the source and are kept apart here.

Experiments:
[1] = tested on: WT pseudotyped virus (PSV) infection of U373 cells; test: microbe, parasite or virus in culture; type: cell-based; conditions: for IC50: Human immunodeficiency virus 1, U373 MG, cells treated 6 h, washed; for Fold Change vs EFdA: fold change of the persistence index relative to EFdA; for Persistence Index: ratio of the IC50 determined at 48 and 0 h
[2] = tested on: WT pseudotyped virus (NL4-3 provirus with HIV gp160 envelope) in U373 cells; test: PSV assay (pseudotyped virus assay), WT; conditions: read-out: WT IC50
Text: A pseudotyped virus assay (PSV) was used to assess the potency of the compounds. Replication defective virus was produced by co-transfection of a plasmid containing an NL4-3 provirus [containing a mutation in the envelope open reading frame (ORF) and a luciferase reporter gene replacing the nef ORF] and a CMV-promoter expression plasmid containing an ORF for various HIV gp160 envelope clones. The harvested virus was stored at −80 C in small aliquots and the titer of the virus measured to produce a robust signal for antiviral assays.
The PSV assay was performed by using U373 cells stably transformed to express human CD4, the primary receptor for HIV entry and either human CXCR4 or human CCR5 which are the co-receptors required for HIV entry as target cells for infection. […] This dose-range was applied to U373 cells and the pre-made pseudotyped virus added. The amount of luciferase signal produced after 3 days of culture was used to reflect the level of pseudotyped virus infection. […] IC50 values were determined from a 10 point dose response curve using 3-4-fold serial dilution for each compound, which spans a concentration range>1000 fold.
These values are plotted against the molar compound concentrations using the standard four parameter logistic equation:
y=((Vmax*x^n)/(K^n+x^n))+Y2 • where: • Y2=minimum y n=slope factor • Vmax=maximum y x=compound concentration [M] • K=EC50

[3] = tested on: M184V pseudotyped virus in U373 cells; type: cell-based, HIV;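 also: reported value is IC50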
[4] = infected immediately (0 h), read-out: WT IC50 at t = 0 h
[5] = Human immunodeficiency virus 1, NL43, U373 MG, 72 h
[6] = Human immunodeficiency virus 1, NL43, U373 MG
[7] = infected 48 h after removal of compound, read-out: WT IC50 at t = 48 h
[8] = Table 4, luciferase signal after 3 days of culture
[9] = Table 5, mean of a greater number of data replicates

| Compound | IC50 [2, 6] [nM] | IC50 [3, 9] [nM] | further results |
| --- | --- | --- | --- |
| C#C[C@]1(CO)O[C@@H](n2cnc3c(N)nc(F)nc32)C[C@@H]1O [EFdA, (2R,3S,5R)-5-(6-amino-2-fluoro-9H-purin-9-yl)-2-ethynyl-2-(hydroxymethyl)tetrahydrofuran-3-ol, reference compound] |  |  | IC50 [1, 4]: 7.4 nM; Fold Change vs EFdA [1]: 1.00; Persistence Index [1]: 42.87 |
| C#C[C@]1(COC(=O)CCCCCCCCCCCCC)O[C@@H](n2cnc3c(N)nc(F)nc32)C[C@@H]1O [Example 1, ((2R,3S,5R)-5-(6-amino-2-fluoro-9H-purin-9-yl)-2-ethynyl-3-hydroxytetrahydrofuran-2-yl)methyl tetradecanoate] | 1 | 10 | IC50 [2, 5]: 2 nM; IC50 [1, 7]: 89.1 nM; IC50 [1, 4]: 2.5 nM; Fold Change vs EFdA [1]: 1.33; Persistence Index [1]: 35.22; IC50 [3, 8]: 12 nM |
| C#C[C@]1(COC(=O)CCCCCC)O[C@@H](n2cnc3c(N)nc(F)nc32)C[C@@H]1O [Example 2, ((2R,3S,5R)-5-(6-amino-2-fluoro-9H-purin-9-yl)-2-ethynyl-3-hydroxytetrahydrofuran-2-yl)methyl heptanoate] | 3 | 15 | IC50 [2, 5]: 3 nM; IC50 [3, 8]: 12 nM |
| C#C[C@]1(COC(=O)CCCCCCCCC)O[C@@H](n2cnc3c(N)nc(F)nc32)C[C@@H]1O [Example 3, ((2R,3S,5R)-5-(6-amino-2-fluoro-9H-purin-9-yl)-2-ethynyl-3-hydroxytetrahydrofuran-2-yl)methyl decanoate] | 3 | 14 | IC50 [2, 5]: 2 nM; IC50 [3, 8]: 15 nM |
| C#C[C@]1(COC(=O)C(CCC)CCC)O[C@@H](n2cnc3c(N)nc(F)nc32)C[C@@H]1O [Example 4, ((2R,3S,5R)-5-(6-amino-2-fluoro-9H-purin-9-yl)-2-ethynyl-3-hydroxytetrahydrofuran-2-yl)methyl 2-propyl pentanoate] | 20 | 111 | IC50 [2, 5]: 14 nM; IC50 [1, 7]: 691 nM; IC50 [1, 4]: 21.1 nM; Fold Change vs EFdA [1]: 1.31; Persistence Index [1]: 32.78; IC50 [3, 8]: 119 nM |
| C#C[C@]1(COC(=O)CCCCCCCCCCCCCCCCCCC)O[C@@H](n2cnc3c(N)nc(F)nc32)C[C@@H]1O [Example 5, ((2R,3S,5R)-5-(6-amino-2-fluoro-9H-purin-9-yl)-2-ethynyl-3-hydroxytetrahydrofuran-2-yl)methyl icosanoate] | 67 | 333 | IC50 [2, 5]: 70 nM; IC50 [1, 7]: 102 nM; IC50 [1, 4]: 51.7 nM; Fold Change vs EFdA [1]: 23.90; Persistence Index [1]: 1.97; IC50 [3, 8]: 322 nM |
| C#C[C@]1(COC(=O)CCCCCCC/C=C\C/C=C\C/C=C\CC)O[C@@H](n2cnc3c(N)nc(F)nc32)C[C@@H]1O [Example 6, (9Z,12Z,15Z)-((2R,3S,5R)-5-(6-amino-2-fluoro-9H-purin-9-yl)-2-ethynyl-3-hydroxytetrahydrofuran-2-yl)methyl octadeca-9,12,15-trienoate] | 4 | 21 | IC50 [2, 5]: 4 nM; IC50 [1, 7]: 180 nM; IC50 [1, 4]: 3.7 nM; Fold Change vs EFdA [1]: 0.75; Persistence Index [1]: 56.90; IC50 [3, 8]: 24 nM |
| C#C[C@]1(COC(C)=O)O[C@@H](n2cnc3c(N)nc(F)nc32)C[C@@H]1O [Example 7, ((2R,3S,5R)-5-(6-amino-2-fluoro-9H-purin-9-yl)-2-ethynyl-3-hydroxytetrahydrofuran-2-yl)methyl acetate] | 14 | 55 |  |
| C#C[C@]1(COC(=O)CC)O[C@@H](n2cnc3c(N)nc(F)nc32)C[C@@H]1O [Example 8, ((2R,3S,5R)-5-(6-amino-2-fluoro-9H-purin-9-yl)-2-ethynyl-3-hydroxytetrahydrofuran-2-yl)methyl propionate] | 8 | 39 |  |
| C#C[C@]1(COC(=O)CCC)O[C@@H](n2cnc3c(N)nc(F)nc32)C[C@@H]1O [Example 9, ((2R,3S,5R)-5-(6-amino-2-fluoro-9H-purin-9-yl)-2-ethynyl-3-hydroxytetrahydrofuran-2-yl)methyl butyrate] | 5 | 26 |  |
| C#C[C@]1(COC(=O)CCCC)O[C@@H](n2cnc3c(N)nc(F)nc32)C[C@@H]1O [Example 10, ((2R,3S,5R)-5-(6-amino-2-fluoro-9H-purin-9-yl)-2-ethynyl-3-hydroxytetrahydrofuran-2-yl)methyl pentanoate] | 3 | 19 |  |
| C#C[C@]1(COC(=O)CCCCCCCC)O[C@@H](n2cnc3c(N)nc(F)nc32)C[C@@H]1O [Example 11, ((2R,3S,5R)-5-(6-amino-2-fluoro-9H-purin-9-yl)-2-ethynyl-3-hydroxytetrahydrofuran-2-yl)methyl nonanoate] | 3 | 13 |  |
| C#C[C@]1(COC(=O)CCCCCCCCCC)O[C@@H](n2cnc3c(N)nc(F)nc32)C[C@@H]1O [Example 12, ((2R,3S,5R)-5-(6-amino-2-fluoro-9H-purin-9-yl)-2-ethynyl-3-hydroxytetrahydrofuran-2-yl)methyl undecanoate] | 2 | 9 |  |
| C#C[C@]1(COC(=O)CCCCCCCCCCCC)O[C@@H](n2cnc3c(N)nc(F)nc32)C[C@@H]1O [Example 13, ((2R,3S,5R)-5-(6-amino-2-fluoro-9H-purin-9-yl)-2-ethynyl-3-hydroxytetrahydrofuran-2-yl)methyl tridecanoate] | 2 | 12 |  |
| C#C[C@]1(COC(=O)CCCCCCCCCCCCCC)O[C@@H](n2cnc3c(N)nc(F)nc32)C[C@@H]1O [Example 14, ((2R,3S,5R)-5-(6-amino-2-fluoro-9H-purin-9-yl)-2-ethynyl-3-hydroxytetrahydrofuran-2-yl)methyl pentadecanoate] | 2 | 11 |  |
| C#C[C@]1(COC(=O)CCCCCCCCCCCCCCCC)O[C@@H](n2cnc3c(N)nc(F)nc32)C[C@@H]1O [Example 15, ((2R,3S,5R)-5-(6-amino-2-fluoro-9H-purin-9-yl)-2-ethynyl-3-hydroxytetrahydrofuran-2-yl)methyl heptadecanoate] | 4 | 26 |  |
| C#C[C@]1(COC(=O)CCCCCCCC#CC)O[C@@H](n2cnc3c(N)nc(F)nc32)C[C@@H]1O [Example 17, ((2R,3S,5R)-5-(6-amino-2-fluoro-9H-purin-9-yl)-2-ethynyl-3-hydroxytetrahydrofuran-2-yl)methyl undec-9-ynoate] | 3 | 13 |  |
| C#C[C@]1(COC(=O)CCCCCCCC#CCCCCCCCC)O[C@@H](n2cnc3c(N)nc(F)nc32)C[C@@H]1O [Example 18, ((2R,3S,5R)-5-(6-amino-2-fluoro-9H-purin-9-yl)-2-ethynyl-3-hydroxytetrahydrofuran-2-yl)methyl octadec-9-ynoate] | 2 | 14 |  |
| C#C[C@]1(COC(=O)C(C)(C)C)O[C@@H](n2cnc3c(N)nc(F)nc32)C[C@@H]1O [Example 19, ((2R,3S,5R)-5-(6-amino-2-fluoro-9H-purin-9-yl)-2-ethynyl-3-hydroxytetrahydrofuran-2-yl)methyl pivalate] | 30 | 150 |  |
| C#C[C@]1(COC(=O)C(C)(C)CCC)O[C@@H](n2cnc3c(N)nc(F)nc32)C[C@@H]1O [Example 20, ((2R,3S,5R)-5-(6-amino-2-fluoro-9H-purin-9-yl)-2-ethynyl-3-hydroxytetrahydrofuran-2-yl)methyl 2,2-dimethylpentanoate] | 25 | 91 |  |
| C#C[C@]1(COC(=O)C(CCCC)CCCCCC)O[C@@H](n2cnc3c(N)nc(F)nc32)C[C@@H]1O (stereo partly drawn) [Example 21, ((2R,3S,5R)-5-(6-amino-2-fluoro-9H-purin-9-yl)-2-ethynyl-3-hydroxytetrahydrofuran-2-yl)methyl 2-butyloctanoate] | 25 | 113 |  |
| C#C[C@]1(COC(=O)C(CCCCCC)CCCCCCCC)O[C@@H](n2cnc3c(N)nc(F)nc32)C[C@@H]1O (stereo partly drawn) [Example 22, ((2R,3S,5R)-5-(6-amino-2-fluoro-9H-purin-9-yl)-2-ethynyl-3-hydroxytetrahydrofuran-2-yl)methyl 2-hexyldecanoate] | 36 | 176 |  |
| C#C[C@]1(COC(=O)C(C)CCCCC)O[C@@H](n2cnc3c(N)nc(F)nc32)C[C@@H]1O (stereo partly drawn) [Example 23, ((2R,3S,5R)-5-(6-amino-2-fluoro-9H-purin-9-yl)-2-ethynyl-3-hydroxytetrahydrofuran-2-yl)methyl 2-methylheptanoate] | 1 | 7 |  |
| C#C[C@]1(COC(=O)CC(F)(F)F)O[C@@H](n2cnc3c(N)nc(F)nc32)C[C@@H]1O [Example 24, ((2R,3S,5R)-5-(6-amino-2-fluoro-9H-purin-9-yl)-2-ethynyl-3-hydroxytetrahydrofuran-2-yl)methyl 3,3,3-trifluoropropanoate] | 8 | 37 |  |
| C#C[C@]1(COC(=O)C(C)(C)C(F)(F)F)O[C@@H](n2cnc3c(N)nc(F)nc32)C[C@@H]1O [Example 25, ((2R,3S,5R)-5-(6-amino-2-fluoro-9H-purin-9-yl)-2-ethynyl-3-hydroxytetrahydrofuran-2-yl)methyl 3,3,3-trifluoro-2,2-dimethylpropanoate] | 21 | 90 |  |
| ((2R,3S,5R)-5-(6-amino-2-fluoro-9H-purin-9-yl)-2-ethynyl-3-hydroxytetrahydrofuran-2-yl)methyl tetracosanoate [Example 16] |  | 10700 | IC50 [2, 9]: 2280 nM |
